From PubChem BioAssay AID1963834 (Molecular Pharmacology Branch, DTP, NCI, 2024)
pIC50: −log10 of the molar value.

Tested on: 873145-292-R-J1-PDC complex spheroid viability
Test: Anticancer human tumor 873145-292-R-J1-PDC patient-derived renal clear cell carcinoma cell line growth inhibition [POLQ]
Settings: for pIC50: curve of first compound; for viability, T/C: stronger effect = lower value; active = viability on the fitted dose curve at most 10% of control; inactive = the rest
How it was run: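 Three-cell-type spheroids modelling solid tumor plus stroma served as the readout system; POL inhibitors were tested individually and in combination, concentration ranges set by clinical Cmax where known.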

[1] = second compound 0.0316 µM, first compound 0.0316 µM
[2] = second compound 0.0316 µM, first compound 0.1 µM
[3] = second compound 0.0316 µM, first compound 0.316 µM
[4] = second compound 0.0316 µM, first compound 1 µM
[5] = second compound 0.0316 µM, first compound 3.16 µM
[6] = second compound 0.0316 µM, first compound 10 µM
[7] = second compound 0.1 µM, first compound 0.0316 µM
[8] = second compound 0.1 µM, first compound 0.1 µM
[9] = second compound 0.1 µM, first compound 0.316 µM
[10] = second compound 0.1 µM, first compound 1 µM
[11] = second compound 0.1 µM, first compound 3.16 µM
[12] = second compound 0.1 µM, first compound 10 µM
[13] = second compound 0.316 µM, first compound 0.0316 µM
[14] = second compound 0.316 µM, first compound 0.1 µM
[15] = second compound 0.316 µM, first compound 0.316 µM
[16] = second compound 0.316 µM, first compound 1 µM
[17] = second compound 0.316 µM, first compound 3.16 µM
[18] = second compound 0.316 µM, first compound 10 µM
[19] = second compound 1 µM, first compound 0.0316 µM
[20] = second compound 1 µM, first compound 0.1 µM
[21] = second compound 1 µM, first compound 0.316 µM
[22] = second compound 1 µM, first compound 1 µM
[23] = second compound 1 µM, first compound 3.16 µM
[24] = second compound 1 µM, first compound 10 µM
[25] = second compound 3.16 µM, first compound 0.0316 µM
[26] = second compound 3.16 µM, first compound 0.1 µM
[27] = second compound 3.16 µM, first compound 0.316 µM
[28] = second compound 3.16 µM, first compound 1 µM
[29] = second compound 3.16 µM, first compound 3.16 µM
[30] = second compound 3.16 µM, first compound 10 µM
[31] = second compound 10 µM, first compound 0.0316 µM
[32] = second compound 10 µM, first compound 0.1 µM
[33] = second compound 10 µM, first compound 0.316 µM
[34] = second compound 10 µM, first compound 1 µM
[35] = second compound 10 µM, first compound 3.16 µM
[36] = second compound 10 µM, first compound 10 µM
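Note: spheroids exposed to compounds for 7 days before viability readout.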
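Throughout, for viability, T/C: luminescence signal used as surrogate for viable cell content; 100% = DMSO vehicle control viability.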

CNCc1ccc(-c2[nH]c3cc(F)cc4c3c2CCNC4=O)cc1 + Cc1cccc(N(C)C(=O)C2C(O)CCN2c2nc(C)cc(C(F)(F)F)c2C#N)c1
< 5.00: pIC50 (second compound 0.0316 µM) | pIC50 (second compound 0.1 µM) | pIC50 (second compound 0.316 µM) | pIC50 (second compound 1 µM) | pIC50 (second compound 3.16 µM) | pIC50 (second compound 10 µM)
inactive: viability, T/C [1] 93.1% | viability, T/C [2] 111% | viability, T/C [3] 96.6% | viability, T/C [4] 96.4% | viability, T/C [5] 110% | viability, T/C [6] 96.2% | viability, T/C [7] 110% | viability, T/C [8] 94.1% | viability, T/C [9] 89.5% | viability, T/C [10] 91.8% | viability, T/C [11] 108% | viability, T/C [12] 99.9% | viability, T/C [13] 111% | viability, T/C [14] 101% | viability, T/C [15] 99% | viability, T/C [16] 91.3% | viability, T/C [17] 97.5% | viability, T/C [18] 111% | viability, T/C [19] 99.5% | viability, T/C [20] 102% | viability, T/C [21] 99.1% | viability, T/C [22] 109% | viability, T/C [23] 101% | viability, T/C [24] 95.9% | viability, T/C [25] 102% | viability, T/C [26] 91% | viability, T/C [27] 97.6% | viability, T/C [28] 87.9% | viability, T/C [29] 101% | viability, T/C [30] 107% | viability, T/C [31] 88.6% | viability, T/C [32] 90.4% | viability, T/C [33] 106% | viability, T/C [34] 88.8% | viability, T/C [35] 106% | viability, T/C [36] 94.5%

Nc1ccn(C2OC(CO)C(O)C2(F)F)c(=O)n1 (stereo not drawn) + Cc1cccc(N(C)C(=O)C2C(O)CCN2c2nc(C)cc(C(F)(F)F)c2C#N)c1
5.31: pIC50 (second compound 0.316 µM)
inactive: viability, T/C [1] 67.6% | viability, T/C [2] 58.3% | viability, T/C [3] 51.4% | viability, T/C [4] 53.3% | viability, T/C [5] 53.5% | viability, T/C [6] 52.6% | viability, T/C [7] 82.3% | viability, T/C [8] 68.8% | viability, T/C [9] 51.8% | viability, T/C [10] 59.8% | viability, T/C [11] 55% | viability, T/C [12] 56.1% | viability, T/C [13] 62% | viability, T/C [14] 63.5% | viability, T/C [15] 54.6% | viability, T/C [16] 58.9% | viability, T/C [17] 54.9% | viability, T/C [18] 43.8% | viability, T/C [19] 66.9% | viability, T/C [20] 52.5% | viability, T/C [21] 52.3% | viability, T/C [22] 49.6% | viability, T/C [23] 53.1% | viability, T/C [24] 50.3% | viability, T/C [25] 72.3% | viability, T/C [26] 63.8% | viability, T/C [27] 55.4% | viability, T/C [28] 55.4% | viability, T/C [29] 56.1% | viability, T/C [30] 45.1% | viability, T/C [31] 69.2% | viability, T/C [32] 63.4% | viability, T/C [33] 62.9% | viability, T/C [34] 58.5% | viability, T/C [35] 59.7% | viability, T/C [36] 58.8%
< 5.00: pIC50 (second compound 0.1 µM) | pIC50 (second compound 1 µM) | pIC50 (second compound 10 µM)
5.27: pIC50 (second compound 3.16 µM)
5.00: pIC50 (second compound 0.0316 µM)

O=C(c1cc(Cc2n[nH]c(=O)c3ccccc23)ccc1F)N1CCN(C(=O)C2CC2)CC1 + Cc1cccc(N(C)C(=O)C2C(O)CCN2c2nc(C)cc(C(F)(F)F)c2C#N)c1
< 5.00: pIC50 (second compound 0.0316 µM) | pIC50 (second compound 0.1 µM) | pIC50 (second compound 0.316 µM) | pIC50 (second compound 1 µM) | pIC50 (second compound 3.16 µM) | pIC50 (second compound 10 µM)
inactive: viability, T/C [1] 104% | viability, T/C [2] 110% | viability, T/C [3] 87.7% | viability, T/C [4] 101% | viability, T/C [5] 102% | viability, T/C [6] 94.8% | viability, T/C [7] 103% | viability, T/C [8] 104% | viability, T/C [9] 90.4% | viability, T/C [10] 102% | viability, T/C [11] 99.9% | viability, T/C [12] 90.8% | viability, T/C [13] 94.4% | viability, T/C [14] 92.1% | viability, T/C [15] 103% | viability, T/C [16] 88.4% | viability, T/C [17] 106% | viability, T/C [18] 92.2% | viability, T/C [19] 103% | viability, T/C [20] 89% | viability, T/C [21] 87.8% | viability, T/C [22] 106% | viability, T/C [23] 94.3% | viability, T/C [24] 87.7% | viability, T/C [25] 92.9% | viability, T/C [26] 93.2% | viability, T/C [27] 111% | viability, T/C [28] 103% | viability, T/C [29] 96.8% | viability, T/C [30] 98.9% | viability, T/C [31] 100% | viability, T/C [32] 93.3% | viability, T/C [33] 91% | viability, T/C [34] 102% | viability, T/C [35] 102% | viability, T/C [36] 107%

O=c1[nH]cc(F)c(=O)[nH]1 + Cc1cccc(N(C)C(=O)C2C(O)CCN2c2nc(C)cc(C(F)(F)F)c2C#N)c1
inactive: viability, T/C [1] 106% | viability, T/C [2] 104% | viability, T/C [3] 99.8% | viability, T/C [4] 102% | viability, T/C [5] 115% | viability, T/C [6] 93.3% | viability, T/C [7] 118% | viability, T/C [8] 101% | viability, T/C [9] 103% | viability, T/C [10] 109% | viability, T/C [11] 97.2% | viability, T/C [12] 100% | viability, T/C [13] 98.3% | viability, T/C [14] 106% | viability, T/C [15] 91.4% | viability, T/C [16] 92.4% | viability, T/C [17] 117% | viability, T/C [18] 102% | viability, T/C [19] 102% | viability, T/C [20] 113% | viability, T/C [21] 100% | viability, T/C [22] 95% | viability, T/C [23] 109% | viability, T/C [24] 96.8% | viability, T/C [25] 93.5% | viability, T/C [26] 101% | viability, T/C [27] 87.7% | viability, T/C [28] 92.6% | viability, T/C [29] 101% | viability, T/C [30] 104% | viability, T/C [31] 98.6% | viability, T/C [32] 92.9% | viability, T/C [33] 94.7% | viability, T/C [34] 98.4% | viability, T/C [35] 104% | viability, T/C [36] 92%
< 5.00: pIC50 (second compound 0.0316 µM) | pIC50 (second compound 0.1 µM) | pIC50 (second compound 0.316 µM) | pIC50 (second compound 1 µM) | pIC50 (second compound 3.16 µM) | pIC50 (second compound 10 µM)
